The test has as its target S. aureus GyrB ATPase (Staphylococcus aureus, UniProt P0A0K8). The test is described as follows: S. aureus GyrB ATPase inhibition (ammonium molybdate/malachite green phosphate detection). It is filed as biochemical. The following applies: compound at 1 μM; inhibition of S. aureus GyrB ATPase; read-out: Percent Inhibition (1 μM). The protocol: S. aureus GyrB ATPase Inhibition Activity: Compounds may be tested for inhibition of S. aureus GyrB ATPase activity using an ammonium molybdate/malachite green-based phosphate detection assay (Lanzetta, P. A., L. J. Alvarez, P. S. Reinach, and O. A. Candia, 1979, 100: 95-97). Assays can be performed in multiwell plates in 30 μl reactions containing: 50 mM Hepes buffer pH 7.5, 75 mM ammonium acetate, 8.0 mM magnesium chloride, 0.5 mM ethylenediaminetetraacetic acid, 5% glycerol, 1.0 mM 1,4-Dithio-DL-threitol, 200 nM bovine serum albumin, 1.0 μg/ml sheared salmon sperm DNA, 250 pM E. coli GyrA, 250 pM S. aureus GyrB, 250 μM ATP, and compound in dimethylsulfoxide. Reactions can be quenched with 30 μl of ammonium molybdate/malachite green detection reagent containing 1.2 mM malachite green hydrochloride, 8.5 mM ammonium molybdate tetrahydrate, and 1 M hydrochloric acid. Plates can be read in an absorbance plate reader at 650 nm and percent inhibition values can be calculated using dimethylsulfoxide (2%)-containing reactions as 0% inhibition and EDTA-containing ([…]) reactions as 100% inhibition controls. An IC50 measurement of compound potency for each compound can be determined from reactions performed in the presence of 10 different compound concentrations.

Molecules are shown by their SMILES. Counter-ions that a name gives are not always drawn.

Sequence of S. aureus GyrB ATPase (P0AES4 whole entry): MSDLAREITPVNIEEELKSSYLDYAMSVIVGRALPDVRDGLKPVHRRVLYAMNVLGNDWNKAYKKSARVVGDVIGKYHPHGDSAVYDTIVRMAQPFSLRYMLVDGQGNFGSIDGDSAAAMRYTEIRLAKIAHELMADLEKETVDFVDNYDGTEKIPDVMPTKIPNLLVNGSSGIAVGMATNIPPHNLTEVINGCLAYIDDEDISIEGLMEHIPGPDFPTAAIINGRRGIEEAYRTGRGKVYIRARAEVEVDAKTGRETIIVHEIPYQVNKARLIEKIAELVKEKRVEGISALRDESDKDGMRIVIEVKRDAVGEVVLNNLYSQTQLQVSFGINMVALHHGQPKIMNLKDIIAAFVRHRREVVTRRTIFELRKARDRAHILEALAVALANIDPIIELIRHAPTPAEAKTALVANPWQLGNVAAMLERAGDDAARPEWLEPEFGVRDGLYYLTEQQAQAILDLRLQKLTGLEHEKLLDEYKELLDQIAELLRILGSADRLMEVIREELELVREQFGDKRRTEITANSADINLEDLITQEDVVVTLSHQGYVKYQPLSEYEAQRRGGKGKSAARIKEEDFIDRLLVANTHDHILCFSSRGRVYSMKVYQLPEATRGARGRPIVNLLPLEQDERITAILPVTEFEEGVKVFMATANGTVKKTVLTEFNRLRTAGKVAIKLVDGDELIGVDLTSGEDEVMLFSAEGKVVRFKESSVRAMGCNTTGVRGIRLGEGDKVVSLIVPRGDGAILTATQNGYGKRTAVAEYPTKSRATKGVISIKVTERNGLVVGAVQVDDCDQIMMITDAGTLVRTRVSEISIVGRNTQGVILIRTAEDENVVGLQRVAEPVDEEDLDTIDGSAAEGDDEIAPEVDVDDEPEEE
Sequence of S. aureus GyrB ATPase (P0A0K8 whole entry): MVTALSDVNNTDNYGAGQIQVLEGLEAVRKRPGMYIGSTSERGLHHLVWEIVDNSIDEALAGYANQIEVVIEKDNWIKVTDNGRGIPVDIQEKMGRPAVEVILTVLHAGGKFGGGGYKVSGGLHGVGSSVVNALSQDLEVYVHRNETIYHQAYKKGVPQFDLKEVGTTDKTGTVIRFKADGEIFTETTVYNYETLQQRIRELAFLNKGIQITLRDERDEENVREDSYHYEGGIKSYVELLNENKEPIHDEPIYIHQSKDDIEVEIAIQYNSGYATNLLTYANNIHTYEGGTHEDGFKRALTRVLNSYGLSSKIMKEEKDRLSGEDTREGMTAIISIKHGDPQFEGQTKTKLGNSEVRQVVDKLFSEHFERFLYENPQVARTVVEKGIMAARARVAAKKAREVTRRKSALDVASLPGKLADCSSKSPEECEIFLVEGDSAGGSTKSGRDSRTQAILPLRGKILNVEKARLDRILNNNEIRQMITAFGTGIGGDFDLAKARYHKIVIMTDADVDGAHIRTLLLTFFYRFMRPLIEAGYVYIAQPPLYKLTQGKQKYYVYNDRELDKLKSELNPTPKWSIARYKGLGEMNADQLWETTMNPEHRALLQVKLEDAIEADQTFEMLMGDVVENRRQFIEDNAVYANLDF

The term inhibition denotes the relative decrease from the control value, in per cent. Take `CCNC(=O)Nc1cc(-c2nc(C(F)(F)F)cs2)c(-c2cc3c(=O)c(C(=O)O)cn(CCN4CCOCC4)c3cc2F)cn1` [Example 50, 6-(6-(3-ethylureido)-4-(4-(trifluoromethyl)thiazol-2-yl)pyridin-3-yl)-7-fluoro-1-(2-morpholinoethyl)-4-oxo-1,4-dihydroquinoline-3-carboxylic acid]: the inhibition at 1 µM amounted to 106%. Then `CCNC(=O)Nc1cc(-c2nc(C(F)(F)F)cs2)c(-c2ccc3c(c2)c(=O)c(C(=O)NCCOP(=O)(O)O)cn3C(COC)COC)cn1` [Example 8, 2-(1-(1,3-dimethoxypropan-2-yl)-6-(6-(3-ethylureido)-4-(4-(trifluoromethyl)thiazol-2-yl)pyridin-3-yl)-4-oxo-1,4-dihydroquinoline-3-carboxamido)ethyl dihydrogen phosphate hydrochloride], with 108%; and `CCNC(=O)Nc1cc(-c2nc(C(F)(F)F)cs2)c(-c2ccc3c(c2)c(=O)c(C(=O)N(C)C)cn3CCN2CCN(C)CC2)cn1` [Example 30, 6-{6-[(Ethylcarbamoyl)amino]-4-[4-(trifluoromethyl)-1,3-thiazol-2-yl]pyridin-3-yl}-N,N-dimethyl-1-[2-(4-methylpiperazin-1-yl)ethyl]-4-oxo-1,4-dihydroquinoline-3-carboxamide], with 98%. `CCNC(=O)Nc1cc(-c2nc(C(F)(F)F)cs2)c(-c2ccc3c(c2)c(=O)c(C(=O)OCCOC(=O)C(C)C)cn3C(COC)COC)cn1` [Example 43, 2-(isobutyryloxy)ethyl 1-(1,3-dimethoxypropan-2-yl)-6-(6-(3-ethylureido)-4-(4-(trifluoromethyl)thiazol-2-yl)pyridin-3-yl)-4-oxo-1,4-dihydroquinoline-3-carboxylate]: the inhibition at 1 µM was found to be 103%.

For `CCNC(=O)Nc1cc(-c2nc(-c3ccccc3)cs2)c(-c2cc3c(=O)c(C(=O)O)cn(C[C@@H]4CCCN4CC)c3cc2OCCN(C)C)cn1` [Example 23, 7-(2-(dimethylamino)ethoxy)-1-(((S)-1-ethylpyrrolidin-2-yl)methyl)-6-(6-(3-ethylureido)-4-(4-phenylthiazol-2-yl)pyridin-3-yl)-4-oxo-1,4-dihydroquinoline-3-carboxylic acid], the inhibition at 1 µM came to 100%. The same measure for `CCNC(=O)Nc1cc(-c2nc(C(F)(F)F)cs2)c(-c2ccc3c(c2)c(=O)c(C(=O)NCCCOP(=O)(O)O)cn3C(COC)COC)cn1` [Example 10, 3-(1-(1,3-dimethoxypropan-2-y1)-6-(6-(3-ethylureido)-4-(4-(trifluoromethyl)thiazol-2-yl)pyridin-3-yl)-4-oxo-1,4-dihydroquinoline-3-carboxamido)propyl dihydrogen phosphate hydrochloride]: 12%; for `CCNC(=O)Nc1cc(-c2nc(C(F)(F)F)cs2)c(-c2cc3c(=O)c(C(=O)O)cn(CCN(C)C)c3cc2OCCN(C)C)cn1` [Example 26, 7-(2-(dimethylamino)ethoxy)-1-(2-(dimethylamino)ethyl)-6-(6-(3-ethylureido)-4-(4-(trifluoromethyl)thiazol-2-yl)pyridin-3-yl)-4-oxo-1,4-dihydroquinoline-3-carboxylic acid]: 108%.

In the case of `CCNC(=O)Nc1cc(-c2nc(C(F)(F)F)cs2)c(-c2ccc3c(c2)c(=O)c(C(=O)N(C)C)cn3C[C@@H]2CCCNC2)cn1` [Example 32, 6-{6-[(Ethylcarbamoyl)amino]-4-[4-(trifluoromethyl)-1,3-thiazol-2-yl]pyridin-3-yl}-N,N-dimethyl-4-oxo-1-[(3R)-piperidin-3-ylmethyl]-1,4-dihydroquinoline-3-carboxamide], the inhibition at 1 µM stood at 104%. Consider `CCNC(=O)Nc1cc(-c2nc(C(F)(F)F)cs2)c(-c2ccc3c(c2)c(=O)c(C(=O)O)cn3[C@@H](CC)COP(=O)(O)O)cn1` [Example 5, (S)-6-(6-(3-ethylureido)-4-(4-(trifluoromethyl)thiazol-2-yl)pyridin-3-yl)-4-oxo-1-(1-(phosphonooxy)butan-2-yl)-1,4-dihydroquinoline-3-carboxylic acid], for which the inhibition at 1 µM came out at 120%. The same measure for `CCNC(=O)Nc1cc(-c2nc(C(F)(F)F)cs2)c(-c2ccc3c(c2)c(=O)c(C(=O)OCOC(C)=O)cn3C(COC)COC)cn1` [Example 38, Acetoxymethyl 1-(1,3-dimethoxypropan-2-yl)-6-(6-(3-ethylureido)-4-(4-(trifluoromethyl)thiazol-2-yl)pyridin-3-yl)-4-oxo-1,4-dihydroquinoline-3-carboxylate]: 105%.

The record behind these values is US20100317624A1 (ASTRAZENECA AB, priority 2009, published 2010).
